# What was measured:
# Trypanosoma cruzi [1] = test: Trypanocidal activity against trypomastigote stage of Trypanosoma cruzi INC-5 infected in NIH mouse blood assessed as parasite lysis at 10 ug/ml after 24 hrs by optical microscopic method relative to control; type: functional
# Trypanosoma cruzi [2] = test: Trypanocidal activity against trypomastigote stage of Trypanosoma cruzi NINOA infected in NIH mouse blood assessed as parasite lysis at 10 ug/ml after 24 hrs by optical microscopic method relative to control; type: functional
# Trypanosoma cruzi [3] = test: Trypanocidal activity against trypomastigote stage of Trypanosoma cruzi INC-5 infected in NIH mouse blood assessed as parasite lysis after 24 hrs by optical microscopic method; type: functional; conditions: INC-5, Blood
# Trypanosoma cruzi [4] = test: Trypanocidal activity against trypomastigote stage of Trypanosoma cruzi NINOA infected in NIH mouse blood assessed as […] parasite lysis after 24 hrs by optical microscopic method; type: functional
# [5] = molecular target: T1, Trans-sialidase (Trypanosoma cruzi) (UniProt Q26964); test: Inhibition of Trypanosoma cruzi trans-sialidase at 1 mM assessed as reduction of 3'-sialyl-N-acetyllactosamine formation at 1 mM using N-acetyllactosamine as substrate and 3-sialyl-lactose as donor incubated for 15 mins by HPAEC-PAD relative to control
# T1 sequence (whole entry): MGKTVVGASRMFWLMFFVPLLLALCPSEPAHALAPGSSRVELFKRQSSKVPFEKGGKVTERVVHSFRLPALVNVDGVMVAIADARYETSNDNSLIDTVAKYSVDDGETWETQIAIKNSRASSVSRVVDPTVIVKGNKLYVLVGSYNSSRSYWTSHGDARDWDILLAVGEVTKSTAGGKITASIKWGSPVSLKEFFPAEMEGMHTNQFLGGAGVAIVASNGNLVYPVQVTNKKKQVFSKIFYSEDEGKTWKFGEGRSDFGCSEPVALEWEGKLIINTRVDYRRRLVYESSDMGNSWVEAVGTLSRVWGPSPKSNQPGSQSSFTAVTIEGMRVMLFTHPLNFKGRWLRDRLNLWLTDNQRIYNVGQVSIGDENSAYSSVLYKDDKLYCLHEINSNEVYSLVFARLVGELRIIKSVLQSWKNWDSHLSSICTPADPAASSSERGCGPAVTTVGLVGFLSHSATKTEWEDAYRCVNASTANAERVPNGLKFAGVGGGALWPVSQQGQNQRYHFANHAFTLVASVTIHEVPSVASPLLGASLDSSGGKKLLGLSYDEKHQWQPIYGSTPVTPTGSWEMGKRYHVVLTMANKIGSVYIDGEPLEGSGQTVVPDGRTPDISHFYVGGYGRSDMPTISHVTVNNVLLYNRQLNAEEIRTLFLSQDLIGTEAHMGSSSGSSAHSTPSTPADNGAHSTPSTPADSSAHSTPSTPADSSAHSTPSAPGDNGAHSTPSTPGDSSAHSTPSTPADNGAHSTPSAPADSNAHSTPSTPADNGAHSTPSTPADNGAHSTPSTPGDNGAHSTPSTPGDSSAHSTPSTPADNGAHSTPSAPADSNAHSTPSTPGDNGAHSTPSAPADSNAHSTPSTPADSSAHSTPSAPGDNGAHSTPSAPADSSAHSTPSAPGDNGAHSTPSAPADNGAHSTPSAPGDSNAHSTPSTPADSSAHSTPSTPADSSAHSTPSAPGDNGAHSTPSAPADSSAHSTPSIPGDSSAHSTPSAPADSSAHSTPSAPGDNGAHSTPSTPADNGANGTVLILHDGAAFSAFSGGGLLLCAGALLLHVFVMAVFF
inhibition [5],Structure (SMILES),Activity (Trypanosoma cruzi [1]),Activity (Trypanosoma cruzi [2]),LC50 (Trypanosoma cruzi [3]),LC50 (Trypanosoma cruzi [4])
–,O=C(O)CC(c1cccs1)N1C(=O)c2ccc(C(=O)O)cc2C1=O (stereo unspecified),19%,67%,–,–
–,COc1ccc(C(N)CC(=O)O)cc1 (stereo unspecified),54%,83%,256 µM,102 µM
–,O=C(O)CC(c1ccc(F)cc1)N1C(=O)c2ccccc2C1=O (stereo unspecified),52%,63%,81.4 µM,90.8 µM
–,NC(CC(=O)O)c1cccs1 (stereo unspecified),32%,8%,–,–
–,Cc1ccc2c(c1)C(=O)N(C(CC(=O)O)c1ccc(-c3ccccc3)cc1)C2=O (stereo unspecified),25%,25%,–,–
–,Cc1ccc(C(N)CC(=O)O)cc1 (stereo unspecified),59%,78%,290 µM,184 µM
–,NC(CC(=O)O)c1ccc([N+](=O)[O-])cc1 (stereo unspecified),68%,50%,249 µM,125 µM
–,Cc1ccc2c(c1)C(=O)N(C(CC(=O)O)c1ccc(Br)cc1)C2=O (stereo unspecified),50%,65%,23 µM,24.6 µM
–,NC(CC(=O)O)c1ccc(-c2ccccc2)cc1 (stereo unspecified),37%,32%,–,–
–,CCc1ccc(C(CC(=O)O)N2C(=O)c3ccc(C(=O)O)cc3C2=O)cc1 (stereo unspecified),61%,23%,–,–
–,O=C(O)CC(c1ccc(Cl)cc1)N1C(=O)c2ccc(C(=O)O)cc2C1=O (stereo unspecified),69%,3%,–,–
–,O=C(O)CC(c1ccc(Br)cc1)N1C(=O)c2ccccc2C1=O (stereo unspecified),15%,8%,–,–
–,Cc1ccc2c(c1)C(=O)N(C(CC(=O)O)c1ccc(Cl)cc1)C2=O (stereo unspecified),51%,52%,52 µM,37.7 µM
–,NC(CC(=O)O)c1ccc(Br)cc1 (stereo unspecified),18%,20%,–,–
–,O=C(O)CC(c1ccccc1[N+](=O)[O-])N1C(=O)c2ccc(C(=O)O)cc2C1=O (stereo unspecified),68%,48%,–,–
–,O=C(O)CC(c1ccc(Br)cc1)N1C(=O)c2ccc(C(=O)O)cc2C1=O (stereo unspecified),56%,23%,–,–
–,COc1ccc(C(CC(=O)O)N2C(=O)c3ccc(C)cc3C2=O)cc1 (stereo unspecified),57%,78%,59.5 µM,65.6 µM
–,NC(CC(=O)O)c1cc2c(cc1[N+](=O)[O-])OCCO2 (stereo unspecified),15%,7%,–,–
–,Cc1ccc(C(CC(=O)O)N2C(=O)c3ccc(C)cc3C2=O)cc1 (stereo unspecified),67%,73%,43.6 µM,85.6 µM
40%,Cc1ccc2c(c1)C(=O)N(C(CC(=O)O)c1ccco1)C2=O (stereo unspecified),40%,27%,–,–
–,Cc1ccc2c(c1)C(=O)N(C(CC(=O)O)c1cc3c(cc1[N+](=O)[O-])OCCO3)C2=O (stereo unspecified),63%,47%,–,–
–,O=C(O)CC(c1ccc2c(c1)OCCO2)N1C(=O)c2ccc(C(=O)O)cc2C1=O (stereo unspecified),47%,33%,–,–
–,O=C(O)CC(c1ccc(Cl)cc1)N1C(=O)c2ccccc2C1=O (stereo unspecified),70%,36%,–,–
–,O=C(O)CC(c1ccc2c(c1)OCCO2)N1C(=O)c2ccccc2C1=O (stereo unspecified),41%,24%,–,–
82.5%,Cc1ccc2c(c1)C(=O)N(C(CC(=O)O)c1ccc(O)cc1)C2=O (stereo unspecified),15%,38%,–,–
–,NC(CC(=O)O)c1ccc(Cl)cc1 (stereo unspecified),73%,13%,–,–
–,O=C(O)CC(c1ccccc1[N+](=O)[O-])N1C(=O)c2ccccc2C1=O (stereo unspecified),68%,56%,–,–
–,O=C(O)CC(c1ccc([N+](=O)[O-])cc1)N1C(=O)c2ccccc2C1=O (stereo unspecified),80%,62%,119 µM,53.5 µM

inhibition [5],Structure (SMILES),Activity (Trypanosoma cruzi [1]),Activity (Trypanosoma cruzi [2]),LC50 (Trypanosoma cruzi [3]),LC50 (Trypanosoma cruzi [4])
76.5%,O=C(O)CC(c1ccco1)N1C(=O)c2ccccc2C1=O (stereo unspecified),21%,16%,–,–
–,CCc1ccc(C(CC(=O)O)N2C(=O)c3ccccc3C2=O)cc1 (stereo unspecified),8%,22%,–,–
–,O=C(O)CC(c1cccs1)N1C(=O)c2ccccc2C1=O (stereo unspecified),25%,22%,–,–
–,O=C(O)CC(c1cc2c(cc1[N+](=O)[O-])OCCO2)N1C(=O)c2ccccc2C1=O (stereo unspecified),13%,54%,–,–
–,O=C(O)CC(c1ccc([N+](=O)[O-])cc1)N1C(=O)c2ccc(C(=O)O)cc2C1=O (stereo unspecified),63%,23%,–,–
66.9%,O=C(O)CC(c1ccc2ccccc2c1)N1C(=O)c2ccc(C(=O)O)cc2C1=O (stereo unspecified),24%,42%,–,–
–,O=C(O)CC(c1cc2c(cc1[N+](=O)[O-])OCCO2)N1C(=O)c2ccc(C(=O)O)cc2C1=O (stereo unspecified),59%,40%,–,–
–,NC(CC(=O)O)c1ccc(F)cc1 (stereo unspecified),62%,35%,–,–
–,CC1CS(=O)(=O)CCN1/N=C/c1ccc([N+](=O)[O-])o1 (stereo unspecified) [NIFURTIMOX],50%,40.74%,–,–
–,CCc1ccc(C(N)CC(=O)O)cc1 (stereo unspecified),50%,65%,264 µM,113 µM
–,COc1ccc(C(CC(=O)O)N2C(=O)c3ccccc3C2=O)cc1 (stereo unspecified),9%,24%,–,–
–,O=C(O)CC(c1ccc(F)cc1)N1C(=O)c2ccc(C(=O)O)cc2C1=O (stereo unspecified),67%,10%,–,–
–,O=C(O)CC(c1ccc(-c2ccccc2)cc1)N1C(=O)c2ccc(C(=O)O)cc2C1=O (stereo unspecified),57%,17%,–,–
–,Cc1ccc(C(CC(=O)O)N2C(=O)c3ccc(C(=O)O)cc3C2=O)cc1 (stereo unspecified),55%,85%,39.9 µM,110 µM
–,Cc1ccc2c(c1)C(=O)N(C(CC(=O)O)c1ccc(F)cc1)C2=O (stereo unspecified),56%,63%,74.6 µM,45.2 µM
53%,O=C(O)CC(c1ccc(O)cc1)N1C(=O)c2ccc(C(=O)O)cc2C1=O (stereo unspecified),71%,43%,–,–
–,O=C(Cn1ccnc1[N+](=O)[O-])NCc1ccccc1 [BENZNIDAZOLE],56%,46.3%,124 µM,130 µM
–,NC(CC(=O)O)c1ccccc1[N+](=O)[O-] (stereo unspecified),63%,23%,–,–
–,Cc1ccc2c(c1)C(=O)N(C(CC(=O)O)c1ccccc1[N+](=O)[O-])C2=O (stereo unspecified),65%,22%,–,–
–,CCc1ccc(C(CC(=O)O)N2C(=O)c3ccc(C)cc3C2=O)cc1 (stereo unspecified),59%,65%,–,–
–,O=C(O)CC(c1ccc(-c2ccccc2)cc1)N1C(=O)c2ccccc2C1=O (stereo unspecified),22%,31%,–,–
–,Cc1ccc2c(c1)C(=O)N(C(CC(=O)O)c1ccc([N+](=O)[O-])cc1)C2=O (stereo unspecified),25%,45%,–,–
–,Cc1ccc(C(CC(=O)O)N2C(=O)c3ccccc3C2=O)cc1 (stereo unspecified),22%,23%,–,–
–,Cc1ccc2c(c1)C(=O)N(C(CC(=O)O)c1ccc3c(c1)OCCO3)C2=O (stereo unspecified),40%,47%,–,–
–,Cc1ccc2c(c1)C(=O)N(C(CC(=O)O)c1cccs1)C2=O (stereo unspecified),48%,47%,–,–
–,NC(CC(=O)O)c1ccc2c(c1)OCCO2 (stereo unspecified),52%,37%,–,–
–,COc1ccc(C(CC(=O)O)N2C(=O)c3ccc(C(=O)O)cc3C2=O)cc1 (stereo unspecified),32%,72%,–,–

Structure (SMILES),inhibition [5],Activity (Trypanosoma cruzi [1]),Activity (Trypanosoma cruzi [2]),LC50 (Trypanosoma cruzi [3]),LC50 (Trypanosoma cruzi [4])
NC(CC(=O)O)c1ccc(O)cc1 (stereo unspecified),1.4%,76%,50%,127 µM,152 µM
NC(CC(=O)O)c1ccc2ccccc2c1 (stereo unspecified),8.3%,60%,60%,103 µM,98.7 µM
O=C(O)CC(c1ccc(O)cc1)N1C(=O)c2ccccc2C1=O (stereo unspecified),5.6%,68%,77%,91 µM,71.4 µM

# Reference: ChEMBL document CHEMBL4152334, “Synthesis, molecular docking and biological evaluation of novel phthaloyl derivatives of 3-amino-3-aryl propionic acids as inhibitors of Trypanosoma cruzi trans-sialidase” (2018)
